Experiment [1] has as its system BCL6 reporter construct (3xBCL6-TK-Luc) in SuDHL4 cells. In words: Cell-based luciferase assay. The conditions noted are these: Homo sapiens, SU-DHL-4, 48 h, read-out: Luciferase-Assay EC50, uM), SuDHL4-3xBCL6-TK-Luc cells, two days, high dose 10 uM. The method in brief:
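SuDHL4 cells stably carrying a 3×BCL6-site TK-promoter firefly luciferase reporter, seeded at 15,000 cells/well, were dosed over a 10-point range (top 10 uM) and grown two days at 37 °C, 5% CO2. Luminescence then read after adding neolite reagent at room temperature.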

Experiment [2] concerns the target BCL6 BTB domain (Homo sapiens (Human), UniProt P41182). Description: Surface plasmon resonance (SPR) assay. The format is binding. Particulars: BCL6 BTB domain captured on SA chip, single cycle kinetics. (In general: SPR reads the build-up and loss of mass on a sensor chip optically.)
The test system of experiment [3] is Karpas422 cells. In words: Tumor cell growth inhibition assay. The format is cell-based. The conditions noted are these: Homo sapiens, KARPAS-422, 144 h, read-out: Tumor Growth Inhibition in Karpas-422 (IC50, uM), Karpas422 cells, six days, ATPlite. Put shortly: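 Karpas422 cells (2,000/well) in Alpha-MEM with 10% FBS dosed across 10 concentrations (top 5 uM) and grown six days at 37° C., 5% CO2. Viability read as ATPlite luminescence.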
A general note: ATP-based viability assays read luminescence as a measure of living cells.

From patent US11518764B2, “Substituted heteroaryls as inhibitors of the BCL6 BTB domain protein-protein interaction” (Ontario Institute for Cancer Research (OICR), priority 2018, dated 2022) come the findings set out here.

In general, EC50 refers to the concentration that produces a half-maximal response. By Kd is commonly meant the free concentration of one partner at which half of the binding sites on the other are occupied at equilibrium, for simple one-to-one binding. The IC50 is the point on the concentration scale where inhibition reaches its midpoint.

Consider `C[C@@H]1CN(c2cc(NC(=O)Cn3cc(-c4cc(C(N)=O)c(O)c(F)c4F)c4c(=O)n(C)cnc43)c(Cl)cn2)C[C@H](C)N1C` [Compound I-353], for which the EC50 in experiment [1] is 1.35 µM. Moreover, the affinity in experiment [2], expressed as Kd, was 75 nM. Moreover, the IC50 in experiment [3] was found to be 0.648 µM.
The matching figures for `CO[C@@H]1CCN(c2cc(NC(=O)Cn3cc(-c4cc(C(N)=O)c(O)c(F)c4F)c4c(=O)n(C)cnc43)c(Cl)cn2)C1` [Compound I-354]: 1.02 µM, 54.8 nM and 1.27 µM.
The like results for `CCN1CCN(c2cc(NC(=O)Cn3cc(-c4cc(C(N)=O)c(O)c5c4OCO5)c4c(=O)n(C)cnc43)c(Cl)c(F)n2)[C@@H](C)C1` [Compound I-357] were, in that order, 0.0322 µM, 1.86 nM and 0.0288 µM.
On to `C[C@H]1CN(C2CCC2)CCN1c1cc(NC(=O)Cn2cc(-c3cc(Cl)c(O)c(C(N)=O)c3)c3c(=O)n(C)cnc32)c(Cl)cn1` [Compound I-358], for which the EC50 in experiment [1] is 0.256 µM. In addition, binding in experiment [2] was put at a Kd of 22.7 nM. Moreover, the IC50 in experiment [3] was 0.341 µM.
The like results for `C[C@H]1CN(C2CCC2)CCN1c1cc(NC(=O)Cn2cc(-c3cc(C(N)=O)c(O)c(F)c3F)c3c(=O)n(C)cnc32)c(Cl)cn1` [Compound I-359] were, in that order, 0.521 µM, 42.2 nM and 1.34 µM.
The matching figures for `CC(C)[C@H]1CN(C)CCN1c1cc(NC(=O)Cn2cc(-c3cc(Cl)c(O)c(C(N)=O)c3)c3c(=O)n(C)cnc32)c(Cl)cn1` [Compound I-360]: 0.659 µM, 30.9 nM and 0.778 µM.
The like results for `CC(C)[C@H]1CN(C)CCN1c1cc(NC(=O)Cn2cc(-c3cc(C(N)=O)c(O)c(F)c3F)c3c(=O)n(C)cnc32)c(Cl)cn1` [Compound I-361] were, in that order, 1.33 µM, 70.8 nM and 1.37 µM.
Turning to `Cn1cnc2c(c(-c3cc(Cl)c(O)c(C(N)=O)c3)cn2CC(=O)Nc2cc(N3CC4CC3CN4CC(F)(F)F)ncc2Cl)c1=O` (stereo not drawn) [Compound I-362], in experiment [1], the EC50 was 0.226 µM. This molecule yielded a Kd in experiment [2] of 38 nM. The IC50 in experiment [3] came out at 0.337 µM.
For `Cn1cnc2c(c(-c3cc(C(N)=O)c(O)c(F)c3F)cn2CC(=O)Nc2cc(N3CC4CC3CN4CC(F)(F)F)ncc2Cl)c1=O` (stereo not drawn) [Compound I-363], the EC50 in experiment [1] came to 0.931 µM. Also, the Kd in experiment [2] was 59.3 nM. In addition, the IC50 in experiment [3] worked out at 1.19 µM.
On to `CO[C@H]1CN(c2cc(NC(=O)Cn3cc(-c4cc(C(N)=O)c(O)c(F)c4F)c4c(=O)n(C)cnc43)c(Cl)cn2)C[C@H]1F` [Compound I-364], for which the EC50 in experiment [1] came to 0.819 µM. Besides, binding in experiment [2] was characterised by a dissociation constant (Kd) of 25 nM. Besides, the IC50 in experiment [3] came out at 1.04 µM.
The like results for `CO[C@@H]1CN(c2cc(NC(=O)Cn3cc(-c4cc(Cl)c(O)c(C(N)=O)c4)c4c(=O)n(C)cnc43)c(Cl)cn2)C[C@@H]1F` [Compound I-365] were, in that order, 0.281 µM, 17.4 nM and 0.462 µM.
As to `CO[C@@H]1CN(c2cc(NC(=O)Cn3cc(-c4cc(C(N)=O)c(O)c(F)c4F)c4c(=O)n(C)cnc43)c(Cl)cn2)C[C@@H]1F` [Compound I-366], in experiment [1], the EC50 was found to be 0.899 µM. Also, in experiment [2], the affinity, expressed as Kd, was 35.2 nM. The IC50 in experiment [3] stood at 0.978 µM.
As to `CN1CC2CC1CN2c1cc(NC(=O)Cn2cc(-c3cc(Cl)c(O)c(C(N)=O)c3)c3c(=O)n(C)cnc32)c(Cl)cn1` (stereo not drawn) [Compound I-367], the EC50 in experiment [1] came out at 5.3 µM. The molecule also displayed a Kd in experiment [2] of 41.9 nM. Further, in experiment [3], the IC50 stood at 3.49 µM.
The matching figures for `C[C@H]1CN(C)CCN1c1cc(NC(=O)Cn2cc(-c3cc(Cl)c(O)c(C(N)=O)c3)c3c(=O)n(C)c(C(F)(F)F)nc32)c(Cl)c(F)n1` [Compound I-368]: 0.369 µM, 83.5 nM and 0.407 µM.
Take `CN1C(C)(C)CN(c2cc(NC(=O)Cn3cc(-c4cc(C(N)=O)c(O)c(F)c4F)c4c(=O)n(C)cnc43)c(Cl)cn2)CC1(C)C` [Compound I-369]: the EC50 in experiment [1] is 2.2 µM. In experiment [2], this molecule came in with a Kd of 159 nM. Further, the IC50 in experiment [3] worked out at 2.8 µM.
The like results for `C[C@H]1CN(C2COC2)CCN1c1cc(NC(=O)Cn2cc(-c3cc(Cl)c(O)c(C(N)=O)c3)c3c(=O)n(C)c(C(F)(F)F)nc32)c(Cl)cn1` [Compound I-371] were, in that order, 0.141 µM, 39.5 nM and 0.288 µM.
The like results for `C[C@H]1CN(C2COC2)CCN1c1cc(NC(=O)Cn2cc(-c3cc(F)c(O)c(C(N)=O)c3)c3c(=O)n(C)cnc32)c(Cl)cn1` [Compound I-372] were, in that order, 0.233 µM, 7.41 nM and 0.267 µM.
The matching figures for `Cc1nc2c(c(-c3cc(Cl)c(O)c(C(N)=O)c3)cn2CC(=O)Nc2cc(N3CCN(C)C[C@@H]3C)nc(F)c2Cl)c(=O)n1C` [Compound I-373]: 0.0803 µM, 5.96 nM and 0.105 µM.
As to `COCCN1CCN(c2cc(NC(=O)Cn3cc(-c4cc(C(N)=O)c(O)c5c4OCO5)c4c(=O)n(C)cnc43)c(Cl)c(F)n2)[C@@H](C)C1` [Compound I-375], in experiment [1], the EC50 came out at 0.0114 µM. For the same molecule, the Kd in experiment [2] amounted to 1.31 nM. Further, in experiment [3], the half-maximal inhibitory concentration (IC50) came to 0.0256 µM.
As to `CCN1CCN(c2cc(NC(=O)Cn3cc(-c4cc(Cl)c(O)c(C(N)=O)c4)c4c(=O)n(C)c(C(F)(F)F)nc43)c(Cl)cn2)[C@@H](C)C1` [Compound I-376], in experiment [1], the EC50 was found to be 0.385 µM. In experiment [2], this molecule displayed a Kd of 73.4 nM. Further, the IC50 in experiment [3] came out at 0.366 µM.
With `C[C@H]1CN(CC2(C(F)(F)F)CC2)CCN1c1cc(NC(=O)Cn2cc(-c3cc(C(N)=O)c(O)c(F)c3F)c3c(=O)n(C)cnc32)c(Cl)cn1` [Compound I-377], the EC50 in experiment [1] is 2.97 µM. Further, the Kd in experiment [2] amounted to 208 nM. The IC50 in experiment [3] came to 8.61 µM.
The matching figures for `Cc1nc2c(c(-c3cc(C(N)=O)c(O)c(F)c3F)cn2CC(=O)Nc2cc(N3CCN(C)C[C@@H]3C(C)C)ncc2Cl)c(=O)n1C` [Compound I-378]: 0.944 µM, 118 nM and 1.22 µM.
`Cc1nc2c(c(-c3cc(C(N)=O)c(O)c(F)c3F)cn2CC(=O)Nc2cc(N3CCN(C4CC4)C[C@@H]3C)ncc2Cl)c(=O)n1C` [Compound I-379]: the EC50 in experiment [1] worked out at 0.664 µM. Further, in experiment [2], the Kd was 68.6 nM. In addition, the IC50 in experiment [3] came to 0.853 µM.
As for `Cc1nc2c(c(-c3cc(C(N)=O)c(O)c(F)c3F)cn2CC(=O)Nc2cc(N3CCN(C(C)C)C[C@@H]3C)ncc2Cl)c(=O)n1C` [Compound I-380], in experiment [1], the EC50 came out at 0.59 µM. Moreover, the Kd in experiment [2] worked out at 56 nM. Also, the IC50 in experiment [3] was 0.478 µM.
The matching figures for `COc1ncc(Cl)c(NC(=O)Cn2cc(-c3cc(C(N)=O)c(O)c(F)c3F)c3c(=O)n(C)c(C)nc32)c1F` [Compound I-381]: 10 µM, 240 nM and 10 µM.
Take `COc1ncc(Cl)c(NC(=O)Cn2cc(-c3cc(Cl)c(O)c(C(N)=O)c3)c3c(=O)n(C)c(C)nc32)c1F` [Compound I-382]: in experiment [1], the EC50 came to 3.1 µM. Also, the Kd in experiment [2] was 342 nM. Further, the IC50 in experiment [3] was 10 µM.
The matching figures for `Cn1cnc2c(c(-c3cc(Cl)c(O)c(C(N)=O)c3)cn2CC(=O)Nc2ccc(F)cc2Cl)c1=O` [Compound I-383]: 2.44 µM, 460 nM and 1.05 µM.
Turning to `Cn1cnc2c(c(-c3cc(Cl)c(O)c(C(N)=O)c3)cn2CC(=O)Nc2ccc(C#N)cc2Cl)c1=O` [Compound I-384], the EC50 in experiment [1] came to 1.18 µM. For the same molecule, the Kd in experiment [2] turned out to be 115 nM. The IC50 in experiment [3] is 0.8 µM.
Take `Cn1cnc2c(c(-c3cc(Cl)c(O)c(C(N)=O)c3)cn2CC(=O)Nc2ccc([N+](=O)[O-])cc2Cl)c1=O` [Compound I-385]: in experiment [1], the EC50 was determined as 0.312 µM. Moreover, the Kd in experiment [2] was 38.4 nM. Also, the IC50 in experiment [3] worked out at 0.335 µM.
The matching figures for `CO[C@@H]1CN(c2cc(NC(=O)Cn3cc(-c4cc(Cl)c(O)c(C(N)=O)c4)c4c(=O)n(C)c(C(F)(F)F)nc43)c(Cl)cn2)C[C@@H]1F` [Compound I-386]: 1.01 µM, 153 nM and 0.772 µM.
Consider `CO[C@H]1CN(c2cc(NC(=O)Cn3cc(-c4cc(Cl)c(O)c(C(N)=O)c4)c4c(=O)n(C)c(C(F)(F)F)nc43)c(Cl)cn2)C[C@H]1F` [Compound I-387], for which the EC50 in experiment [1] amounted to 1.12 µM. The same molecule showed a Kd in experiment [2] of 189 nM. In addition, the IC50 in experiment [3] stood at 1.04 µM.
As to `CO[C@@H]1CN(c2cc(NC(=O)Cn3cc(-c4cc(Cl)c(O)c(C(N)=O)c4)c4c(=O)n(C)c(C(F)(F)F)nc43)c(Cl)c(F)n2)C[C@@H]1F` [Compound I-388], the EC50 in experiment [1] is 1.51 µM. The same molecule displayed a Kd in experiment [2] of 528 nM. Also, in experiment [3], the IC50 amounted to 0.394 µM.
`CO[C@H]1CN(c2cc(NC(=O)Cn3cc(-c4cc(Cl)c(O)c(C(N)=O)c4)c4c(=O)n(C)c(C(F)(F)F)nc43)c(Cl)c(F)n2)C[C@H]1F` [Compound I-389]: the EC50 in experiment [1] came out at 2.01 µM. In experiment [2], this molecule showed a Kd of 286 nM. Moreover, the IC50 in experiment [3] came out at 1.46 µM.
As to `CCN1CCN(c2cc(NC(=O)Cn3cc(-c4cc(F)c(O)c(C(N)=O)c4)c4c(=O)n(C)cnc43)c(Cl)cn2)[C@@H](C)C1` [Compound I-390], in experiment [1], the EC50 turned out to be 0.0677 µM. In experiment [2], this molecule returned a Kd of 6.18 nM. In experiment [3], the IC50 was determined as 0.0483 µM.
The like results for `CC(C1CC1)N1CCN(c2cc(NC(=O)Cn3cc(-c4cc(F)c(O)c(C(N)=O)c4)c4c(=O)n(C)cnc43)c(Cl)cn2)[C@@H](C)C1` (stereo partly drawn) [Compound I-391] were, in that order, 0.0672 µM, 7.26 nM and 0.0726 µM.
